According to patent publication US11098040B2, “Compounds and methods of use” (Ferro Therapeutics, Inc., priority 2018, dated 2021):

How the values were obtained:
KP4 = assay: Cell viability assay (CellTiter Glo), pancreatic ductal adenocarcinoma KP4; assay type: cell-based, human; settings: Homo sapiens, KP-4, 96 h, pancreatic cancer cell line KP4, 96 hours, CellTiter Glo; read-out: IC50 μM KP4
How it was run: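 Luminescent ATP readout (CellTiter Glo) after 96 h compound exposure, normalized to DMSO-treated cells as maximum. Compounds ran in duplicate, nine 3-fold steps from 30 μM down to 4.6 nM, final DMSO ≤0.25%; KP4 plated overnight at 1,000–10,000 cells/well. Outputs: IC50, relative IC50 or % top inhibition.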

[1] = Whole blood stability, mouse; assay type: in vitro ADME
Excerpt: (§1) The results of the assay on stability in blood and IC50 values for pancreatic cancer cell line KP4 are given below in Table 24.

[2] = Whole blood stability, human; assay type: in vitro ADME
Excerpt: as §1

| Compound | IC50 (KP4) | Whole Blood Stability % Remaining at 37° C. Mouse ([1]; 0 min) | Whole Blood Stability % Remaining at 37° C. Mouse ([1]; 30 min) | Whole Blood Stability % Remaining at 37° C. Mouse ([1]; 60 min) | Whole Blood Stability % Remaining at 37° C. Human ([2]; 0 min) | Whole Blood Stability % Remaining at 37° C. Human ([2]; 30 min) | Whole Blood Stability % Remaining at 37° C. Human ([2]; 60 min) |
| --- | --- | --- | --- | --- | --- | --- | --- |
| COC(=O)[C@H]1Cc2c([nH]c3ccccc23)[C@H](c2ccc(C(=O)OCC3CCC3)cc2)N1C(=O)CCl [Compound 85] | < 0.01 µM | 100.0% | 0.0% | 0.0% | 100.0% | 73.5% | 54.4% |
| COC(=O)[C@H]1Cc2c([nH]c3ccccc23)[C@H](c2ccc(C(=O)OCC3CCCC3)cc2)N1C(=O)CCl [Compound 86] | < 0.01 µM | 100.0% | 0.0% | 0.0% | 100.0% | 78.3% | 49.6% |
| COC(=O)[C@H]1Cc2c([nH]c3ccc(Br)cc23)[C@H](c2ccc(C(=O)OCC3CC3)cc2)N1C(=O)CCl [Compound 87] | < 0.01 µM | 100.0% | 0.0% | 0.0% | 100.0% | 63.2% | 32.2% |
| COC(=O)c1ccc([C@H]2c3[nH]c4ccc(Br)cc4c3C[C@H](C(=O)OC)N2C(=O)CCl)cc1 [Compound 88] | < 0.01 µM | 100.0% | 0.0% | 0.0% | 100.0% | 56.4% | 27.0% |
| COC(=O)[C@H]1Cc2c([nH]c3ccccc23)[C@H](c2ccc(C(=O)OCC3CCCCC3)cc2)N1C(=O)CCl [Compound 89] | < 0.01 µM | 100.0% | 0.0% | 0.0% | 100.0% | 84.8% | 91.2% |
| COC(=O)c1ccc([C@H]2c3[nH]c4ccc(F)cc4c3C[C@H](C(=O)OC)N2C(=O)CCl)cc1 [Compound 91] | < 0.01 µM | 100.0% | 0.0% | 0.0% | 100.0% | 65.8% | 47.2% |
| COC(=O)c1ccc([C@@H]2c3[nH]c4ccc(F)cc4c3C[C@H](C(=O)OC)N2C(=O)CCl)cc1 [Compound 92] | 0.1 to 0.5 µM | 100.0% | 0.0% | 0.0% | 100.0% | 40.2% | 21.0% |
| COC(=O)c1ccc([C@H]2c3[nH]c4ccc(Cl)cc4c3C[C@H](C(=O)OC)N2C(=O)CCl)cc1 [Compound 93] | 0.1 to 0.5 µM | 100.0% | 0.0% | 0.0% | 100.0% | 66.3% | 44.9% |
| COC(=O)c1ccc([C@@H]2c3[nH]c4ccc(Cl)cc4c3C[C@H](C(=O)OC)N2C(=O)CCl)cc1 [Compound 94] | < 0.01 µM | 100.0% | 0.0% | 0.0% | 100.0% | 50.3% | 27.1% |
| COC(=O)c1ccc([C@H]2c3[nH]c4cccc(Br)c4c3C[C@H](C(=O)OC)N2C(=O)CCl)cc1 [Compound 95] | 0.01 to 0.1 µM | 100.0% | 1.5% | 0.0% | 100.0% | 109.5% | 85.6% |
| COC(=O)c1ccc([C@H]2c3[nH]c4cc(Br)ccc4c3C[C@H](C(=O)OC)N2C(=O)CCl)cc1 [Compound 96] | < 0.01 µM | 100.0% | 0.0% | 0.0% | 100.0% | 29.1% | 10.9% |
| COC(=O)c1ccc([C@H]2c3[nH]c4c(Br)cccc4c3C[C@H](C(=O)OC)N2C(=O)CCl)cc1 [Compound 97] | < 0.01 µM | 100.0% | 0.0% | 0.0% | 100.0% | 69.6% | 44.1% |
| CC[C@H]1Cc2c([nH]c3ccccc23)[C@H](c2ccc(C(=O)OC)cc2)N1C(=O)CCl [Compound 98] | < 0.01 µM | 100.0% | 0.0% | 0.0% | 100.0% | 79.2% | 54.8% |
| CC[C@H]1Cc2c([nH]c3ccccc23)[C@@H](c2ccc(C(=O)OC)cc2)N1C(=O)CCl [Compound 99] | > 1 µM | 100.0% | 4.0% | 0.0% | 100.0% | 94.5% | 67.9% |
| COC(=O)c1cccc([C@H]2c3[nH]c4ccccc4c3C[C@H](C(=O)OC)N2C(=O)CCl)c1 [Compound 100] | < 0.01 µM | 100.0% | 35.8% | 10.8% | 100.0% | 60.9% | 44.3% |

Second part, the compound after the results:

| IC50 (KP4) | Whole Blood Stability % Remaining at 37° C. Mouse ([1]; 0 min) | Whole Blood Stability % Remaining at 37° C. Mouse ([1]; 30 min) | Whole Blood Stability % Remaining at 37° C. Mouse ([1]; 60 min) | Whole Blood Stability % Remaining at 37° C. Human ([2]; 0 min) | Whole Blood Stability % Remaining at 37° C. Human ([2]; 30 min) | Whole Blood Stability % Remaining at 37° C. Human ([2]; 60 min) | Compound |
| --- | --- | --- | --- | --- | --- | --- | --- |
| < 0.01 µM | 100.0% | 82.2% | 113.2% | 100.0% | 46.8% | 29.8% | C[C@H]1Cc2c([nH]c3ccccc23)[C@H](c2ccc(S(=O)(=O)N[C@]34CC5C[C@H](C[C@H](C5)C3)C4)cc2)N1C(=O)CCl [Compound 101] |
| < 0.01 µM | 100.0% | 87.2% | 90.1% | 100.0% | 96.3% | 75.6% | C[C@H]1Cc2c([nH]c3ccccc23)[C@H](c2ccc(C(=O)N[C@]34CC5C[C@H](C[C@H](C5)C3)C4)cc2)N1C(=O)CCl [Compound 102] |
| < 0.01 µM | 100.0% | 87.1% | 56.6% | 100.0% | 98.4% | 75.2% | C[C@H]1Cc2c([nH]c3ccccc23)[C@H](c2ccc(N3CCOCC3)cc2)N1C(=O)CCl [Compound 103, 2-chloro-1-((1S,3S)-3-methyl-1-(4-morpholinophenyl)-1,3,4,9-tetrahydro-2H-pyrido[3,4-b]indol-2-yl)ethan-1-one] |
| < 0.01 µM | 100.0% | 79.2% | 87.7% | 100.0% | 96.1% | 68.1% | C[C@H]1Cc2c([nH]c3ccccc23)[C@H](c2ccc(C3CCCC3)cc2)N1C(=O)CCl [Compound 109] |
| < 0.01 µM | 100.0% | 127.4% | 111.0% | 100.0% | 68.3% | 51.7% | C[C@H]1Cc2c([nH]c3ccccc23)[C@H](c2ccc(C3CCCCC3)cc2)N1C(=O)CCl [Compound 110] |
| 0.5 to 1 µM | 100.0% | 79.2% | 87.7% | 100.0% | 96.1% | 68.1% | C[C@H]1Cc2c([nH]c3ccccc23)[C@@H](c2ccc(C(=O)NC34CC(C3)C4)cc2)N1C(=O)CCl [Compound 111] |
| < 0.01 µM | 100.0% | 68.7% | 69.3% | 100.0% | 58.3% | 44.6% | C[C@H]1Cc2c([nH]c3ccccc23)[C@H](c2ccc(C3CCOCC3)cc2)N1C(=O)CCl [Compound 112] |
